Test results published in patent US8710044B2, “Bicyclic azaheterocyclic carboxamides” (Merck Patent GmbH, priority 2010, dated 2014).

What follows are compounds tested against T1, P70S6K (T412E mutant, Millipore) (Homo sapiens, UniProt P23443, T412E) (assay: P70S6K Enzyme Assay). Conditions: 3 nM enzyme, 24 μM ATP, 1 μM FITC-AHA-[…]-OH substrate peptide, 90 min at 25° C., Caliper Lab Chip 3000.
T1 construct: purchased Millipore
Assay type: biochemical
Procedure: P70S6K inhibitor compounds are diluted and plated in 96 well plates. […] The reaction is incubated for 90 min at 25° C., before the addition of 10 mM EDTA to stop the reaction. The proportion of substrate and product (phosphorylated) peptide is analysed on a Caliper Life Sciences Lab Chip 3000, using a pressure of −1.4 psi, and upstream and downstream voltages of −3000 and −700 respectively. Product peaks are resolved before substrate peaks on the resulting chromatograms.

T1 sequence (P23443 whole entry T412E): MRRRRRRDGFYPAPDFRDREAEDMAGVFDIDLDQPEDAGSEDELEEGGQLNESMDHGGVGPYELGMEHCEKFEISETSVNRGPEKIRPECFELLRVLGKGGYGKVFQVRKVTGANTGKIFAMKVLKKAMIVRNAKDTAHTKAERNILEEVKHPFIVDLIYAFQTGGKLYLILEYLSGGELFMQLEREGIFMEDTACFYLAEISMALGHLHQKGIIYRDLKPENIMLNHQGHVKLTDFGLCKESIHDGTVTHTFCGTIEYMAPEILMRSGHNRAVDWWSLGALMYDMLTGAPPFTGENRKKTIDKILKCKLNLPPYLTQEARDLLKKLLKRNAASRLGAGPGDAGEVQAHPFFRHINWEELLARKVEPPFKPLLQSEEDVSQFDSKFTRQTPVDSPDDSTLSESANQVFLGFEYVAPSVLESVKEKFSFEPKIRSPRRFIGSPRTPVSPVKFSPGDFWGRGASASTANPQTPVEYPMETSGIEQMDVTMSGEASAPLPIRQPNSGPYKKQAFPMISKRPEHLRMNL

IC50 | Compound
2.8 nM | CNC[C@@H](Nc1nc(C)nc2c(C(N)=O)cccc12)c1ccc(F)cc1 [Example 16, 4-{[(1S)-1-(4-fluorophenyl)-2-(methylamino)ethyl]amino}-2-methylquinazoline-8-carboxamide]
139 nM | CNC[C@@H](Nc1nc(C)nc2c(C(N)=O)cccc12)c1cccc(F)c1 [Example 17, 4-{[(1S)-1-(3-fluorophenyl)-2-(methylamino)ethyl]amino}-2-methylquinazoline-8-carboxamide]
23 nM | CNC[C@@H](Nc1nc(C(C)C)nc2c(C(N)=O)cccc12)c1ccc(Cl)cc1 [Example 18, 4-{[(1S)-1-(4-chlorophenyl)-2-(methylamino)ethyl]amino}-2-isopropylquinazoline-8-carboxamide]
0.83 nM | CNC[C@@H](Nc1nc(C)nc2c(C(N)=O)cccc12)c1ccc(Cl)cc1 [Example 19, 4-{[(1S)-1-(4-chlorophenyl)-2-(methylamino)ethyl]amino}-2-methylquinazoline-8-carboxamide]
1.97 nM | CCc1nc(N[C@H](CNC)c2cccc(F)c2)c2cccc(C(N)=O)c2n1 [Example 20, 2-Ethyl-4-{[(1S)-1-(3-fluorophenyl)-2-(methylamino)ethyl]amino}quinazoline-8-carboxamide]
0.87 nM | CCc1nc(N[C@H](CNC)c2cccc(Cl)c2)c2cccc(C(N)=O)c2n1 [Example 21, 4-{[(1S)-1-(3-Chlorophenyl)-2-(methylamino)ethyl]amino}-2-ethylquinazoline-8-carboxamide]
0.98 nM | CNC[C@@H](Nc1nc(C)nc2c(C(N)=O)cccc12)c1cccc(Cl)c1 [Example 22, 4-{[(1S)-1-(3-Chlorophenyl)-2-(methylamino)ethyl]amino}-2-methylquinazoline-8-carboxamide]
11 nM | CCc1nc(N[C@H](CNC)c2ccccc2)c2cccc(C(N)=O)c2n1 [Example 23, 2-Ethyl-4-{[(1S)-2-(methylamino)-1-phenylethyl]amino}quinazoline-8-carboxamide]
1.4 nM | CCc1nc(N[C@H](CNC)c2ccc(Cl)cc2)c2cccc(C(N)=O)c2n1 [Example 24, 4-{[(1S)-1-(4-Chlorophenyl)-2-(methylamino)ethyl]amino}-2-ethylquinazoline-8-carboxamide]
6.46 nM | CNC[C@@H](Nc1nc(C)nc2c(C(N)=O)cccc12)c1ccccc1 [Example 26, 2-Methyl-4-{[(1S)-2-(methylamino)-1-phenylethyl]amino}quinazoline-8-carboxamide]
4.3 nM | CNC[C@@H](Nc1nc(C(F)(F)F)nc2c(C(N)=O)cccc12)c1cccc(F)c1 [Example 27, 4-{[(1S)-1-(3-Fluorophenyl)-2-(methylamino)ethyl]amino}-2-(trifluoromethyl)-quinazoline-8-carboxamide]
18.5 nM | CCc1nc(N[C@H](CN2CCC2)c2cccc(F)c2)c2cccc(C(N)=O)c2n1 [Example 28]
5.84 nM | Cc1nc(N[C@H](CN2CCC2)c2ccccc2)c2cccc(C(N)=O)c2n1 [Example 29]
33.6 nM | CCc1nc(N[C@H](CN2CCC2)c2ccccc2)c2cccc(C(N)=O)c2n1 [Example 30]
2.6 nM | Cc1nc(N[C@H](CN2CCC2)c2ccc(Cl)cc2)c2cccc(C(N)=O)c2n1 [Example 31]
5.5 nM | CCc1nc(N[C@H](CN2CCC2)c2ccc(Cl)cc2)c2cccc(C(N)=O)c2n1 [Example 32]

IC50 | Compound
44 nM | Cc1nc(N[C@H](CN2CCC2)c2ccc(F)cc2)c2cccc(C(N)=O)c2n1 [Example 33]
7 nM | Cc1nc(N[C@H](CN2CCC2)c2cccc(F)c2)c2cccc(C(N)=O)c2n1 [Example 34]
30 nM | CCc1nc(N[C@H](CN2CCC2)c2ccc(F)cc2)c2cccc(C(N)=O)c2n1 [Example 36]
12 nM | CNC[C@@H](Nc1nc(C)nc2c(C(N)=O)cccc12)c1cc(F)ccc1OC [Example 47, 4-[(S)-1-(5-Fluoro-2-methoxy-phenyl)-2-methylamino-ethylamino]-2-methyl-quinazoline-8-carboxylic acid amide]
1 nM | CNC[C@@H](Nc1nc(C)nc2c(C(N)=O)cccc12)c1ccc(C(F)(F)F)cc1 [Example 48, 2-Methyl-4-[(S)-2-methylamino-1-(4-trifluoromethyl-phenyl)-ethylamino]-quinazoline-8-carboxylic acid amide]
452 nM | Cc1nc(N[C@@H](Cc2ccccc2)CN(C)C)c2cccc(C(N)=O)c2n1 [Example 49, 4-((S)-1-Benzyl-2-dimethylamino-ethylamino)-2-methyl-quinazoline-8-carboxylic acid amide]
260 nM | CNC[C@@H](Nc1nc(C)nc2c(C(N)=O)cccc12)c1ccc(F)cc1C(F)(F)F [Example 50, 4-[(1S)-1-[4-fluoro-2-(trifluoromethyl)phenyl]-2-(methylamino)ethyl]amino-2-methylquinazoline-8-carboxamide]
8 nM | NC[C@@H](Nc1nc(C(F)(F)F)nc2c(C(N)=O)cccc12)c1ccccc1 [Example 51, 4-((S)-2-Amino-1-phenyl-ethylamino)-2-trifluoromethyl-quinazoline-8-carboxylic acid amide]
1 nM | CNC[C@@H](Nc1nc(C)nc2c(C(N)=O)cccc12)c1ccc(OC(F)(F)F)c(Cl)c1 [Example 52]
3 nM | CNC[C@@H](Nc1nc(C)nc2c(C(N)=O)cccc12)c1cc(F)ccc1F [Example 53]
7 nM | CNC[C@@H](Nc1nc(C)nc2c(C(N)=O)cccc12)c1ccc(F)cc1F [Example 54]
6 nM | CNC[C@@H](Nc1nc(C)nc2c(C(N)=O)cccc12)c1c(F)cccc1F [Example 55]
1 nM | CNC[C@@H](Nc1nc(C)nc2c(C(N)=O)cccc12)c1cc(F)c(F)cc1F [Example 56, (S)-2-methyl-4-((2-(methylamino)-1-(2,4,5-trifluorophenyl)ethyl)amino)quinazoline-8-carboxamide]
9 nM | CCc1nc(N[C@H](CNC)c2cccc(F)c2Cl)c2cccc(C(N)=O)c2n1 [Example 60, (S)-4-((1-(2-chloro-3-fluorophenyl)-2-(methylamino)ethyl)amino)-2-ethylquinazoline-8-carboxamide]
330 nM | CNC[C@@H](Nc1nc(C)nc2c(C(N)=O)cccc12)c1ccc(Cl)c(Cl)c1 [Example 61]
